Measurements taken from patent US7501430B2 (ArQule, Inc., priority 2006, dated 2009).

Target: T1, mutant B-RAF (Homo sapiens, UniProt P15056, V600E)
T1 construct: purchased Upstate (Charlottesville, Va.)
Test: RAF biochemical assay (MEK-1 phosphorylation, anti-phospho MEK1/2 detection)
Settings: @ 10 uM; read-out: Mutant B-RAF % inhibition
Method in brief: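 Detection is by ELISA: after a 30 min room-temperature reaction, plate-captured GST-MEK-1 is probed with anti-phospho MEK1/2, then an AP-tagged secondary antibody with fluorescent Attophos read-out.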

T1 sequence (P15056 whole entry V600E): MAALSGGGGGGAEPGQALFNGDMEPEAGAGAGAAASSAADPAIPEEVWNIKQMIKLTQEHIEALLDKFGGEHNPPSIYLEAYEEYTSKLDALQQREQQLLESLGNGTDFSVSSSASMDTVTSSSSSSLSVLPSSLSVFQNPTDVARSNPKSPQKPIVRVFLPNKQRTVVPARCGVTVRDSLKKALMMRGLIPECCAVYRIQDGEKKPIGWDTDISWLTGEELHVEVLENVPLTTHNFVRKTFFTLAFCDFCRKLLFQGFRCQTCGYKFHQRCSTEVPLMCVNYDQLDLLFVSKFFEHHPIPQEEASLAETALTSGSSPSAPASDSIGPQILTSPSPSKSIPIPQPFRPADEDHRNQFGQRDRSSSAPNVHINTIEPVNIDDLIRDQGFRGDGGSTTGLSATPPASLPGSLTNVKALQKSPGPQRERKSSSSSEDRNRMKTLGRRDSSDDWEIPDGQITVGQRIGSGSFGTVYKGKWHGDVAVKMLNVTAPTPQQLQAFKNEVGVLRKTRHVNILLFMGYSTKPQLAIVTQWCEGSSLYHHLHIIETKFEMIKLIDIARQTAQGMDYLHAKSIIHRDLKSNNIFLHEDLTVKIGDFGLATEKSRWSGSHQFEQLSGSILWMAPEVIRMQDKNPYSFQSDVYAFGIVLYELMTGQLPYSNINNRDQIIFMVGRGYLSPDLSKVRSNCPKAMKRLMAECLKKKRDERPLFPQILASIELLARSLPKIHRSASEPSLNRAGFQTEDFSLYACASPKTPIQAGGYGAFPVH

| inhibition at 10 µM | Compound |
| --- | --- |
| 42% | COc1cccc(-c2nc3sccn3c2-c2ccnc(N[C@H]3CCCNC3)n2)c1 [Example 137, 4-[6-(3-methoxyphenyl)imidazo[2,1-b][1,3]thiazol-5-yl]-N-[(3S)-piperidin-3-yl]pyrimidin-2-amine] |
| 82% | NCCC(=O)Nc1ccccc1-c1nc2sccn2c1-c1ccnc(N[C@@H]2CCCN(S(=O)(=O)c3ccc(Cl)cc3)C2)n1 [Example 138, N~1~-(2-{5-[2-({(3R)-1-[(4-chlorophenyl)sulfonyl]piperidin-3-yl}amino)pyrimidin-4-yl]imidazo[2,1-b][1,3]thiazol-6-yl}phenyl)-beta-alaninamide] |
| 41% | COc1cccc(-c2nc3sccn3c2-c2ccnc(N[C@H]3CCCN(S(=O)(=O)c4ccc(Cl)cc4)C3)n2)c1 [Example 139, N-{(3S)-1-[(4-chlorophenyl)sulfonyl]piperidin-3-yl}-4-[6-(3-methoxyphenyl)imidazo[2,1-b][1,3]thiazol-5-yl]pyrimidin-2-amine] |
| 56% | COc1cccc(-c2nc3sccn3c2-c2ccnc(N[C@@H]3CCCN(S(=O)(=O)c4cccc(OC)c4)C3)n2)c1 [Example 142, 4-[6-(3-methoxyphenyl)imidazo[2,1-b][1,3]thiazol-5-yl]-N-{(3R)-1-[(3-methoxyphenyl)sulfonyl]piperidin-3-yl}pyrimidin-2-amine] |
| 69% | COc1ccc(OC)c(-c2nc3sccn3c2-c2ccnc(N[C@@H]3CCCN(S(=O)(=O)c4ccc(Cl)cc4)C3)n2)c1 [Example 144, N-{(3R)-1-[(4-chlorophenyl)sulfonyl]piperidin-3-yl}-4-[6-(2,5-dimethoxyphenyl)imidazo[2,1-b][1,3]thiazol-5-yl]pyrimidin-2-amine] |

More lines, now with the values behind:

| Compound | inhibition at 10 µM |
| --- | --- |
| N#Cc1cccc(-c2nc3sccn3c2-c2ccnc(N[C@@H]3CCCNC3)n2)c1 [Example 125, 3-(5-{2-[(3R)-piperidin-3-ylamino]pyrimidin-4-yl}imidazo[2,1-b][1,3]thiazol-6-yl)benzonitrile] | 19% |
| CCOC(=O)c1ccc(-c2nc3sccn3c2-c2ccnc(N[C@@H]3CCCNC3)n2)cc1OCC [Example 128, ethyl 2-ethoxy-4-(5-{2-[(3R)-piperidin-3-ylamino]pyrimidin-4-yl}imidazo[2,1-b][1,3]thiazol-6-yl)benzoate] | 24% |

Same assay, conditions: read-out: Mutant B-RAF IC50

| IC50 | Compound |
| --- | --- |
| 0.84 µM | O=C(O)c1ccc(-c2nc3sccn3c2-c2ccnc(N[C@@H]3CCCN(S(=O)(=O)c4ccc(Cl)cc4)C3)n2)cc1O [Example 133, 4-{5-[2-({(3R)-1-[(4-chlorophenyl)sulfonyl]piperidin-3-yl}amino)pyrimidin-4-yl]imidazo[2,1-b][1,3]thiazol-6-yl}-2-hydroxybenzoic acid] |
| 0.024 µM | O=S(=O)(c1ccc(Cl)cc1)N1CCC[C@@H](Nc2nccc(-c3c(-c4ccc(O)c(O)c4)nc4sccn34)n2)C1 [Example 134, 4-{5-[2-({(3R)-1-[(4-chlorophenyl)sulfonyl]piperidin-3-yl}amino)pyrimidin-4-yl]imidazo[2,1-b][1,3]thiazol-6-yl}benzene-1,2-diol] |
| > 3 µM | NCCCC(=O)Nc1ccccc1-c1nc2sccn2c1-c1ccnc(N[C@@H]2CCCN(S(=O)(=O)c3ccc(Cl)cc3)C2)n1 [Example 136, 4-amino-N-(2-{5-[2-({(3R)-1-[(4-chlorophenyl)sulfonyl]piperidin-3-yl}amino)pyrimidin-4-yl]imidazo[2,1-b][1,3]thiazol-6-yl}phenyl)butanamide] |
| 0.953 µM | O=S(=O)(c1ccc(Cl)cc1)N1CCC[C@H](Nc2nccc(-c3c(-c4cccc(O)c4)nc4sccn34)n2)C1 [Example 140, 3-{5-[2-({(3S)-1-[(4-chlorophenyl)sulfonyl]piperidin-3-yl}amino)pyrimidin-4-yl]imidazo[2,1-b][1,3]thiazol-6-yl}phenol] |
| 0.814 µM | NCC(=O)Nc1ccccc1-c1nc2sccn2c1-c1ccnc(N[C@@H]2CCCN(S(=O)(=O)c3ccc(Cl)cc3)C2)n1 [Example 141, N~1~-(2-{5-[2-({(3R)-1-[(4-chlorophenyl)sulfonyl]piperidin-3-yl}amino)pyrimidin-4-yl]imidazo[2,1-b][1,3]thiazol-6-yl}phenyl)glycinamide] |
| 0.019 µM | O=S(=O)(c1cccc(O)c1)N1CCC[C@@H](Nc2nccc(-c3c(-c4cccc(O)c4)nc4sccn34)n2)C1 [Example 143, 3-{[(3R)-3-({4-[6-(3-hydroxyphenyl)imidazo[2,1-b][1,3]thiazol-5-yl]pyrimidin-2-yl}amino)piperidin-1-yl]sulfonyl}phenol] |

The remaining lines, values behind:

| Compound | IC50 |
| --- | --- |
| Nc1cccc(-c2nc3sccn3c2-c2ccnc(N[C@@H]3CCCN(S(=O)(=O)c4ccc(Cl)cc4)C3)n2)c1 [Example 122, 4-[6-(3-aminophenyl)imidazo[2,1-b][1,3]thiazol-5-yl]-N-{(3R)-1-[(4-chlorophenyl)sulfonyl]piper-idin-3-yl}pyrimidin-2-amine] | 0.429 µM |
| CC(=O)Nc1cccc(-c2nc3sccn3c2-c2ccnc(N[C@@H]3CCCN(S(=O)(=O)c4ccc(Cl)cc4)C3)n2)c1 [Example 123, N-(3-{5-[2-({(3R)-1-[(4-chlorophenyl)sulfonyl]piperidin-3-yl}amino)pyrimidin-4-yl]imidazo[2,1-b][1,3]thiazol-6-yl}phenyl)acetamide] | 0.215 µM |
| NCC(=O)Nc1cccc(-c2nc3sccn3c2-c2ccnc(N[C@@H]3CCCN(S(=O)(=O)c4ccc(Cl)cc4)C3)n2)c1 [Example 124, N~1~-(3-{5-[2-({(3R)-1-[(4-chlorophenyl)sulfonyl]piperidin-3-yl}amino)pyrimidin-4-yl]imidazo[2,1-b][1,3]thiazol-6-yl}phenyl)glycinamide] | 2.96 µM |
| N#Cc1cccc(-c2nc3sccn3c2-c2ccnc(N[C@@H]3CCCN(S(=O)(=O)c4ccc(Cl)cc4)C3)n2)c1 [Example 126, 3-{5-[2-({(3R)-1-[(4-chlorophenyl)sulfonyl]piperidin-3-yl}amino)pyrimidin-4-yl]imidazo[2,1-b][1,3]thiazol-6-yl}benzonitrile] | 0.71 µM |
| O=C(O)c1ccc(-c2nc3sccn3c2-c2ccnc(N[C@@H]3CCCN(S(=O)(=O)c4ccc(Cl)cc4)C3)n2)cc1 [Example 127, 4-{5-[2-({(3R)-1-[(4-chlorophenyl)sulfonyl]piperidin-3-yl}amino)pyrimidin-4-yl]imidazo[2,1-b][1,3]thiazol-6-yl}benzoic acid] | > 3 µM |
| N#Cc1cccc(-c2nc3sccn3c2-c2ccnc(N[C@@H]3CCCN(S(=O)(=O)c4ccc(C(=O)O)cc4)C3)n2)c1 [Example 129] | > 3 µM |
| CCOC(=O)c1ccc(-c2nc3sccn3c2-c2ccnc(N[C@@H]3CCCN(S(=O)(=O)c4ccc(Cl)cc4)C3)n2)cc1OCC [Example 130, ethyl 4-{5-[2-({(3R)-1-[(4-chlorophenyl)sulfonyl]piperidin-3-yl}amino)pyrimidin-4-yl]imidazo[2,1-b][1,3]thiazol-6-yl}-2-ethoxybenzoate] | 1.09 µM |
| O=[N+]([O-])c1ccccc1-c1nc2sccn2c1-c1ccnc(N[C@@H]2CCCN(S(=O)(=O)c3ccc(Cl)cc3)C2)n1 [Example 131, N-{(3R)-1-[(4-chlorophenyl)sulfonyl]piperidin-3-yl}-4-[6-(2-nitrophenyl)imidazo[2,1-b][1,3]thiazol-5-yl]pyrimidin-2-amine] | 0.025 µM |
| Nc1ccccc1-c1nc2sccn2c1-c1ccnc(N[C@@H]2CCCN(S(=O)(=O)c3ccc(Cl)cc3)C2)n1 [Example 132, 4-[6-(2-aminophenyl)imidazo[2,1-b][1,3]thiazol-5-yl]-N-{(3R)-1-[(4-chlorophenyl)sulfonyl]piper-idin-3-yl}pyrimidin-2-amine] | 0.444 µM |
